Legend:
Format in all cases: cell-based
[1] = system: pSer15-p53 and pThr68-Chk2; test: Western analysis of p53 and Chk2 phosphorylation in parental and engineered HeLa cells; conditions: Dox (2 μM), HeLa/HMGA2 and HeLa/HMGA2(2K/R) cells
Procedure: pSer15-p53 and pThr68-Chk2 profiles following exposure to Dox in parental and engineered HeLa cells were assessed. […] Intriguingly, there was a noticeable accumulation of pSer15-p53 at 6 hours post-treatment and attenuation of pThr68-Chk2 at 2 hours post-treatment in HeLa/HMGA2 cells, compared with Dox-treated HeLa and HeLa/HMGA2(2K/R) cells. Together with results set forth in Example 25, HMGA2 appears to disrupt DNA damage response by interfering with the activation of DNA-PKcs, ATM and Chk2.

[2] = system: caspase-3 and p53; test: Western analysis of caspase-3 cleavage and p53 levels; conditions: Dox
[3] = system: Ku70-deficient MEF cells and their wild-type counterparts; test: MTT cell viability assay; conditions: increasing concentrations, 72 hours
Procedure: To confirm the involvement of DNA-PK in mediating HMGA2 chemosensitization to Dox-induced DNA damage, MTT assays were conducted as described above on Ku70-deficient (Ku70^−/^−) MEF cells and their wild-type counterparts and on DNA-PKcs-deficient MO59J cells and DNA-PKcs-proficient MO59K cells.

[4] = system: H2AX phosphorylation; test: Western analysis of H2AX phosphorylation in pEBS7, YZ5, and MO59J cells; conditions: 2 μM Dox for 2 hours
Procedure: pEBS7, YZ5, and MO59J cells were treated with 2 μM Dox for 2 hours, at which point cell lysates were removed and subjected to Western analyses using anti-phospho-H2AX antibodies. Control Western analyses were performed using monoclonal anti-actin antibodies.

[5] = system: Pa-4/HMGA2 cells; test: FACS cell cycle analysis (G2/M, sub-G1)
Procedure: (§1) Pa-4 and Pa-4/HMGA2 cells were seeded at 50-80% confluency in 35 mm dishes and serum starved overnight to synchronize cell cycle. Synchronized cells were treated with 1 μM Dox or vehicle for 24 hours, then fixed in 70% ethanol overnight and stained with 20 μg/ml propidium iodide. The percentage of cells in G1 versus G2/M was then determined by FACS analysis at the Norris Cancer Center Flow Cytometry Core Facility using FACSCaliber (Becton Dickinson, Franklin Lakes, N.J.).
(§2) Apoptosis of Pa-4 and Pa-4/HMGA2 cells was quantified by assessing the sub-G, cell population, a hallmark of cell apoptosis. The percentage of […] Pa-4/HMGA2 cells was increased five-fold 24 hours after Dox treatment, versus an increase of only two-fold in Pa-4 cells (FIG. 3A, panel e).

[6] = system: Pa-4 cells; test: FACS cell cycle analysis (G2/M, sub-G1)
Procedure: as §1, §2

[7] = system: ATM-deficient pEBS7 cells and ATM-proficient YZ5 cells; test: MTT cell viability assay; conditions: Dox 0-1 μM
[8] = system: DNA-PKcs pT2609 and pS2056; test: Western analysis of DNA-PKcs phosphorylation
Procedure: Dox treatment has been reported to lead to rapid and transient phosphorylation of DNA-PKcs at Thr-2609 (pT2609) and Ser-2056 (pS2056), respectively (Chen 2005). Equal amounts of protein lysates from HeLa and HeLa/HMGA2 cells were treated with 2 μM or 5 μM Dox, then subjected to Western analyses using polyclonal anti-phospho-DNA-PKcs-T2609/S2056 (Dr. David Chen, Univ. of Texas Southwestern Medical Center) and monoclonal anti-DNA-PKcs antibodies (Santa Cruz, Calif.). Control lysates were treated with vehicle only. Untreated and Dox-treated MO59K (DNA-PKcs proficient) and MO59J (DNA-PKcs deficient) cells were used as an additional control to assure antibody specificity.
To confirm that HMGA2 expression is at least in part responsible for sustained DNA-PKcs pT2609 and pS2056 signals following Dox exposure, siRNA was utilized to downregulate endogenous HMGA2 expression in Hs578T cells. siRNA against HMGA2 (si-HMGA2) was described previously (Boo 2005). The sense and antisense were annealed to a working concentration of 20 μM by incubation with annealing buffer (5×: 30 mM HEPES pH 7.4, 100 mM potassium acetate, 2 mM magnesium acetate) at 90° C. for one minute followed by incubation at 37° C. for one hour. The annealed siRNA was stored at −20° C. Transfection of siRNA was performed with GeneEraser (Stratagene, Calif.) according to manufacturer's instruction. Briefly, cells were seeded to a confluency of 50% on the day of transfection. GeneEraser was pre-incubated at room temperature in serum-free medium ten minutes before the addition of siRNA. The GeneEraser/si-HMGA2 solution was then incubated at room temperature for an additional 15 minutes before addition to cells in a serum-containing medium. The cells were allowed to incubate for various time periods without any medium change post-transfection. Control cells were transfected with a scrambled siRNA. Cells were treated with Dox 48 hours after transfection.

[9] = system: ATM phosphorylation; test: Western analysis of ATM phosphorylation in HeLa and HeLa/HMGA2 cells; conditions: Dox
Procedure: To ascertain whether HMGA2 effects Dox-induced ATM signaling activation, phosphorylation of ATM Ser1981 and H2AX Ser139 was assayed in the presence and absence of Dox (2 μM in ATM assays, 1 μM in H2AX assays). At various timepoints after Dox treatment, cell lysates were removed and subjected to Western analyses using monoclonal anti-phospho-ATM antibodies (Ser1981), polyclonal anti-ATM antibodies (Santa Cruz Biotechnology, Santa Cruz, Calif.), monoclonal anti-phospho-H2AX antibodies ([…]) (Upstate Cell Signaling), or anti-H2AX antibodies. Control Western analyses were performed using monoclonal anti-actin antibodies. […] HeLa and HeLa/HMGA2 cells
The effect of HMGA2 on ATM and H2AX phosphorylation in HeLa cells was measured using the protocol described above. […] As for H2AX, results were similar to those observed in Pa-4 cells.

[10] = 1 μM Dox for 24 hours, synchronized cells

Structure (SMILES): COc1cccc2c1C(=O)c1c(O)c3c(c(O)c1C2=O)C[C@@](O)(C(=O)CO)C[C@@H]3O[C@H]1C[C@H](N)[C@H](O)[C@H](C)O1 [Dox, doxorubicin]
- pSer15-p53 and pThr68-Chk2 signals [1]: caused induction of pSer15-p53 and pThr68-Chk2 signals
- caspase-3 cleavage fragment [2]: increased in HeLa/HMGA2, HepG2 and Hs578T cells
- steady-state p53 levels ([2]; HeLa, HeLa/HMGA2, CL48, and HepG2 cells): increased steady-state p53 levels
- viability, Ku70-deficient versus wild type [3]: marked decrease in viability
- induction of H2AX phosphorylation ([4]; YZ5 cells and MO59J cells): substantial increase in H2AX phosphorylation following Dox treatment
- induction of H2AX phosphorylation ([4]; pEBS7 cells): lack of Dox-mediated induction
- percentage of cells in G2/M phase [5, 10]: 62.6%
- increase in apoptosis (sub-G1 cell population) ([5]; 24 hours after Dox treatment): five-fold
- percentage of cells in G2/M phase [6, 10]: 50.9%
- increase in apoptosis (sub-G1 cell population) ([6]; 24 hours after Dox treatment): two-fold
- decrease in viability, pEBS7 versus YZ5 ([7]; 72 hours): less pronounced in the ATM-negative pEBS7 cells
- cell viability ([7]; 72 hours after treatment): decreased cell viability in both cell types in a dose-dependent manner
- DNA-PKcs phosphorylation signals ([8]; 2 μM or 5 μM Dox, two hours, HeLa/HMGA2 cells): Accumulation of DNA-PKcs phosphorylation signals
- DNA-PKcs phosphorylation signals, Hs578T versus HCC1419 ([8]; increasing concentrations of Dox): recapitulated in HMGA2-expressing Hs578T breast cancer cells, but not in HMGA2-underexpressing HCC1419 breast cancer cells
- ATM phosphorylation ([9]; HeLa cells): rapid phosphorylation of ATM in HeLa cells
- ATM phosphorylation ([9]; HeLa/HMGA2 cells): no ATM phosphorylation was observed
